Laboratory results: ChEMBL document CHEMBL5465560, “Selectivity Literature for EUbOPEN Chemogenomic Library” (2024)
One block for each compound: values may come before it.

Key:
[1] = target: T1, Ankyrin repeat and protein kinase domain-containing protein 1 (Homo sapiens) (UniProt Q8NFD2); assay: Selectivity interaction (KinomeScan (DiscoverX)) EUB0000666a ANKK1; conditions: at 10 µM
T1 sequence (whole entry): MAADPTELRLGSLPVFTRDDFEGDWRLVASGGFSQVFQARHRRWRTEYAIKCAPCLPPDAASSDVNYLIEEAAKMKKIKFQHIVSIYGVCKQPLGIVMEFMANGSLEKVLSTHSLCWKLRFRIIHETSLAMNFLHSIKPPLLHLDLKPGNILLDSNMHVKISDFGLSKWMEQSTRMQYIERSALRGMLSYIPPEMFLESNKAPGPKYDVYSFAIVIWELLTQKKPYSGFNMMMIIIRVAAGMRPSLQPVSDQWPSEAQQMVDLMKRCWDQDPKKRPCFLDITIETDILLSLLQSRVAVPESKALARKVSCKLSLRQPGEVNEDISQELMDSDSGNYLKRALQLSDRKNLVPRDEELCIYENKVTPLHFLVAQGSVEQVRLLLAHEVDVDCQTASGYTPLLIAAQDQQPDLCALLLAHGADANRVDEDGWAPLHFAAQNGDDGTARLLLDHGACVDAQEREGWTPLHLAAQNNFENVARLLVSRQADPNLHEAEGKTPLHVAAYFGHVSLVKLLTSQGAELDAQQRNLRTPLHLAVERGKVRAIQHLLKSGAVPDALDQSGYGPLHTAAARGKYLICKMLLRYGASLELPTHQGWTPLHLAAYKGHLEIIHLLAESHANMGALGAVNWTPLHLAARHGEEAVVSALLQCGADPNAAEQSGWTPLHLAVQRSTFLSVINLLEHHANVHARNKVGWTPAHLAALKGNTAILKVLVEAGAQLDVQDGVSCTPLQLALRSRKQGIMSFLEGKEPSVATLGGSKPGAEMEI

[2] = target: T2, Serine/threonine-protein kinase STK11 (Homo sapiens) (UniProt Q15831); assay: Selectivity interaction (ActivX KiNativ screen (kinase selectivity in THP-1 cell lysates)) EUB0000639a STK11; assay type: subcellular; conditions: lysate
T2 sequence (whole entry): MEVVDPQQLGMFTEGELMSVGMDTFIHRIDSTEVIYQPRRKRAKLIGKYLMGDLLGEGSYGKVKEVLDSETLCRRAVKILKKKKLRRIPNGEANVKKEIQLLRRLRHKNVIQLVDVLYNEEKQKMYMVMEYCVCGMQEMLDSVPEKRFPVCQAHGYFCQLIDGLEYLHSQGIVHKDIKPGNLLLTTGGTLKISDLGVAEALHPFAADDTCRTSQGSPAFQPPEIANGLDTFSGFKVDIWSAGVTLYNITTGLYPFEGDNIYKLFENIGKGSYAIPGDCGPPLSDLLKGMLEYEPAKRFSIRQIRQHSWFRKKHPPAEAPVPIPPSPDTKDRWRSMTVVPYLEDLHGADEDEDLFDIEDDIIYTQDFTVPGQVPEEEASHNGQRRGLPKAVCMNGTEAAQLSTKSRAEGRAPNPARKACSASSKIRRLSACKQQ

[3] = target: T3, Mitogen-activated protein kinase kinase kinase 15 (Homo sapiens) (UniProt Q6ZN16); assay: Selectivity interaction (ActivX KiNativ screen (kinase selectivity in THP-1 cell lysates)) EUB0000639a MAP3K15; assay type: subcellular; conditions: lysate
T3 sequence (whole entry): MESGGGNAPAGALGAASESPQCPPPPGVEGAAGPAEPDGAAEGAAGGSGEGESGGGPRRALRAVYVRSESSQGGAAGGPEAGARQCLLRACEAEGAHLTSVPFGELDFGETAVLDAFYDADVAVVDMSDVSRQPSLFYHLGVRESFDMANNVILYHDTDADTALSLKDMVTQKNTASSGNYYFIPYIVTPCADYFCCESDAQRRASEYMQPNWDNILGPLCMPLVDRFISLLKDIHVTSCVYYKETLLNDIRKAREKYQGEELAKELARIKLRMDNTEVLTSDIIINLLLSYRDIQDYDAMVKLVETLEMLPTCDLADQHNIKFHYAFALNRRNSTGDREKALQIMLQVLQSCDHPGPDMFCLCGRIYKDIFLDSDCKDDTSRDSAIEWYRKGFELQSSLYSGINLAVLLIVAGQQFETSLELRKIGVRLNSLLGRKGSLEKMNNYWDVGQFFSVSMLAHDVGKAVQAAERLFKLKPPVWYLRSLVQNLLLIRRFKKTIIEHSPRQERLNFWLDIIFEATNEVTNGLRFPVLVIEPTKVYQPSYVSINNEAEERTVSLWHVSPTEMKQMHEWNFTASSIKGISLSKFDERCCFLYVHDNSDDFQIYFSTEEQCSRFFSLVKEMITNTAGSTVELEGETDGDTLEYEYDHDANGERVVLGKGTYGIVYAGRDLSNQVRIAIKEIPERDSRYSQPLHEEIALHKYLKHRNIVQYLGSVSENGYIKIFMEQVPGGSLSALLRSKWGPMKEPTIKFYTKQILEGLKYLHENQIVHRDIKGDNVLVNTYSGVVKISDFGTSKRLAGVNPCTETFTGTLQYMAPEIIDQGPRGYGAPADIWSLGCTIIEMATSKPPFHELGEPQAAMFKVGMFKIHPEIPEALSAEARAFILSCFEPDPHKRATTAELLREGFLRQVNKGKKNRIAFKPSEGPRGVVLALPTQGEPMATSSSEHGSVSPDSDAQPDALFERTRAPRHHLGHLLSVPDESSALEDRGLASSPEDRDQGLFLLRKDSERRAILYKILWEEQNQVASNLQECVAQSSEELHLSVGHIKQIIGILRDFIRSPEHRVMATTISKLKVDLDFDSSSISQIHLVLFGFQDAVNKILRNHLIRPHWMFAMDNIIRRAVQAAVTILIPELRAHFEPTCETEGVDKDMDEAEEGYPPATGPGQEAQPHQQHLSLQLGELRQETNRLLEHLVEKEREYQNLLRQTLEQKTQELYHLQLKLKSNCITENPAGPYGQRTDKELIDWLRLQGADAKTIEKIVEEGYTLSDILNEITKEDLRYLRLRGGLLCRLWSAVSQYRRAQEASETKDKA

[4] = target: Ribosomal protein S6 kinase alpha-1 (Homo sapiens, UniProt Q15418); assay: Selectivity interaction (KinomeScan (DiscoverX)) EUB0000595a RPS6KA1; conditions: at 10 µM
[5] = target: Mitogen-activated protein kinase kinase kinase kinase 4 (Homo sapiens, UniProt O95819); assay: Selectivity interaction (SelectScreen Kinase Profiling (Thermo Fisher Scientific)) EUB0001558a MAP4K4; conditions: at 1 µM
Mitogen-activated protein kinase kinase kinase kinase 4, sequence (O95819 2-1239 limits assumed): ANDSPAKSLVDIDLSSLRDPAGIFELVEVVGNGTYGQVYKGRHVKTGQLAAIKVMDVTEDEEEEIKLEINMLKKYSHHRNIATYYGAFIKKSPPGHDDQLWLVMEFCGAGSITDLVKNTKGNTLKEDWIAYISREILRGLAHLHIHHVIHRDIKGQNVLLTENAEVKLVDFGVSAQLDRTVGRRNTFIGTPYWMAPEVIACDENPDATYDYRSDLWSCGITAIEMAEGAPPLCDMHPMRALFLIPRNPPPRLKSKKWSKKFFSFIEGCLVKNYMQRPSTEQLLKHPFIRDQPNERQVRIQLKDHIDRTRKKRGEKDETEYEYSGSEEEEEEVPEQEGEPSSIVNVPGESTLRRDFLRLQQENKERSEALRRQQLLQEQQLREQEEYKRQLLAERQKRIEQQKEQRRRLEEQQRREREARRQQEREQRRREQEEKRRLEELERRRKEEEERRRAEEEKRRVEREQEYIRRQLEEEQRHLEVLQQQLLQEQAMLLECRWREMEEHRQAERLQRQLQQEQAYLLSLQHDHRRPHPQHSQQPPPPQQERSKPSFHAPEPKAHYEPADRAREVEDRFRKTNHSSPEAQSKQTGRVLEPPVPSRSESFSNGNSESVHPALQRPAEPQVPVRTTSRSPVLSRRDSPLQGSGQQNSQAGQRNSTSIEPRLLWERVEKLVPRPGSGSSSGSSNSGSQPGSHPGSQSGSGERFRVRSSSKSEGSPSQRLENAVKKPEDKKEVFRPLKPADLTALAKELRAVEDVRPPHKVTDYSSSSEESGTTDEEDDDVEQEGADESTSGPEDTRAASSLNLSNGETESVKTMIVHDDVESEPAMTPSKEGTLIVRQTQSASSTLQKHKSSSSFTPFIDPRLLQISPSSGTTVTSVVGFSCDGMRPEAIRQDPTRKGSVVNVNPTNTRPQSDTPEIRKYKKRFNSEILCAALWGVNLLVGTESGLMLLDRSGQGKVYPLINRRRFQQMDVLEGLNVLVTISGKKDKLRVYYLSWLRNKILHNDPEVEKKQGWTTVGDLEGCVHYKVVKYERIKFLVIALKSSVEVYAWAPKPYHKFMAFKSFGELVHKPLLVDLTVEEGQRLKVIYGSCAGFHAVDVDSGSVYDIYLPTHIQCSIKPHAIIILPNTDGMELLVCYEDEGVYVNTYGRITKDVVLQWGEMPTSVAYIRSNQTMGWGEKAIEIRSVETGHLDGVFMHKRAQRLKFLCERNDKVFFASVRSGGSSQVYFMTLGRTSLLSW

Ribosomal protein S6 kinase alpha-1, sequence (Q15418 whole entry): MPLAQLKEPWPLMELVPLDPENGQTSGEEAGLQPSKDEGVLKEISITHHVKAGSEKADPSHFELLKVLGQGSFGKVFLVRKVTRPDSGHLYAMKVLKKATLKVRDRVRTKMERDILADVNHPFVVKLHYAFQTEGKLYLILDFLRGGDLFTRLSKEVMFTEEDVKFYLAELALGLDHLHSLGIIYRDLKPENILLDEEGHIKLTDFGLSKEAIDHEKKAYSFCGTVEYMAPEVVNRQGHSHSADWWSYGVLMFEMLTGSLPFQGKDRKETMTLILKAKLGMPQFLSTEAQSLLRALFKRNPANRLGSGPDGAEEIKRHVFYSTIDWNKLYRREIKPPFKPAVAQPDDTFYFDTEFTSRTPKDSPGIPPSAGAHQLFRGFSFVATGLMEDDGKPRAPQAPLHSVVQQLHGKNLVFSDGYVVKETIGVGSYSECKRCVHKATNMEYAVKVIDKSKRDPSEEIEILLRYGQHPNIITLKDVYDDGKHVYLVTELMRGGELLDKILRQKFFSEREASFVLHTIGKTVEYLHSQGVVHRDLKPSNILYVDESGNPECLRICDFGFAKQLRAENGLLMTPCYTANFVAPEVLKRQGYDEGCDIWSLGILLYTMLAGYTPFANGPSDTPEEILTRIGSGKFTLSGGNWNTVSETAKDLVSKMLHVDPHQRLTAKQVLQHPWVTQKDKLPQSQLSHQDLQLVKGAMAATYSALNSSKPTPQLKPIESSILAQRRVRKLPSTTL

SMILES: O=C(NOC[C@H](O)CO)c1ccc(F)c(F)c1Nc1ccc(I)cc1F
% of control [1]: 64%

% of inhibition ([2]; at 0.01 µM): -0.5%
% of inhibition ([2]; at 0.04 µM): 12.2%
% of inhibition ([2]; at 0.2 µM): 34.8%
% of inhibition ([2]; at 1 µM): 58.5%
% of inhibition ([2]; at 5 µM): 85.1%
% of inhibition ([3]; at 0.01 µM): -12.1%
% of inhibition ([3]; at 0.04 µM): -3.2%
% of inhibition ([3]; at 0.2 µM): 0%
% of inhibition ([3]; at 1 µM): -6.5%
% of inhibition ([3]; at 5 µM): -21.9%
SMILES: CC[C@@H]1[C@H](F)C(=O)N[C@@H]1COc1nccc2cc(C(N)=O)c(OC)cc12 [ZIMLOVISERTIB]

SMILES: COCC(=O)NC/C=C/c1ccc2ncnc(Nc3ccc(Oc4ccc(C)nc4)c(C)c3)c2c1 [CP-724714]
% of control [4]: 100%

SMILES: CC(C)(O)[C@H](F)CN1Cc2cc(NC(=O)c3cnn4cccnc34)c(N3CCOCC3)cc2C1=O
% of inhibition [5]: 86.3%
